Assay results reported in ChEMBL document CHEMBL4680133, “Novel nitroimidazole derivatives evaluated for their trypanocidal, cytotoxic, and genotoxic activities” (Eur J Med Chem, 2020).

What was measured:
Trypanosoma cruzi [1] = assay: Antitrypanosomal activity against bloodstream form of Trypanosoma cruzi Y trypomastigotes infected in African green monkey Vero cells assessed as increase in parasite lysis measured after 24 hrs by Neubauer chamber method; format: functional, organism-based
HepG2 [2] = assay: Genotoxicity in human HepG2 assessed as number of micronucleated cells at 100 ug/ml measured after 24 hrs by micronucleus test (reference value: 14 to 18); format: toxicity, cell-based; details: hepg2, 24 h, dose 100 µg/ml
[3] = Genotoxicity in human HepG2 assessed as survival at 100 ug/ml measured after 24 hrs by micronucleus test (reference value: 100%); format: toxicity, cell-based; details: HepG2 cells, at 100 µg/mL, read-out: Survival
HepG2 [4] = assay: Genotoxicity in human HepG2 assessed as mitotic index at 100 ug/ml measured after 24 hrs by micronucleus test (reference value: 61 to 108); format: toxicity, cell-based; details: hepg2, 24 h, dose 100 µg/ml
[5] = Mutagenicity in Salmonella typhimurium TA97 assessed as revertant/ug measured after 20 mins in presence of S9 fraction by microsome assay; format: toxicity, subcellular; details: salmonella enterica subsp. enterica serovar typhimurium, s9, 20 min
[6] = Mutagenicity in Salmonella typhimurium TA100 assessed as revertant/ug measured after 20 mins in presence of S9 fraction by microsome assay; format: toxicity, subcellular; details: salmonella enterica subsp. enterica serovar typhimurium, s9, 20 min
[7] = Mutagenicity in Salmonella typhimurium TA100 assessed as revertant/ug measured after 20 mins in absence of S9 fraction by microsome assay; format: toxicity; details: salmonella enterica subsp. enterica serovar typhimurium, microsomes
[8] = Mutagenicity in Salmonella typhimurium TA97 assessed as revertant/ug measured after 20 mins in absence of S9 fraction by microsome assay; format: toxicity; details: salmonella enterica subsp. enterica serovar typhimurium, microsomes
[9] = Genotoxicity in mouse RAW264.7 cells assessed as survival at 1880 uM measured after 24 hrs by micronucleus test (reference value: 100%); format: toxicity, cell-based; details: read-out: Survival
HepG2 [10] = assay: Genotoxicity in human HepG2 assessed as number of micronucleated cells at 188 uM measured after 24 hrs by micronucleus test (reference value: 14 to 18); format: toxicity, cell-based; details: hepg2, 24 h
[11] = Selectivity index, ratio of GI50 for mouse RAW264.7 cells assessed as reduction in cell viability measured after 24 hrs by WST1 assay to IC50 for antitrypanosomal activity against Trypanosoma cruzi Y axenic amastigotes infected in African green monkey Vero cells; format: toxicity; details: read-out: Selectivity Index
[12] = Selectivity index, ratio of GI50 for human HepG2 cells assessed as reduction in cell viability measured after 24 hrs by WST1 assay to IC50 for antitrypanosomal activity against bloodstream form of Trypanosoma cruzi Y trypomastigotes infected in African green monkey Vero cells; format: toxicity; details: read-out: Selectivity Index
RAW264.7 [13] = assay: Genotoxicity in mouse RAW264.7 cells assessed as number of micronucleated cells at 3760 uM measured after 24 hrs by micronucleus test (reference value: 12 to 15); format: toxicity, cell-based; details: raw264.7, 24 h
[14] = Genotoxicity in human HepG2 assessed as survival at 188 uM measured after 24 hrs by micronucleus test (reference value: 100%); format: toxicity, cell-based; details: HepG2 cells, read-out: Survival
[15] = Genotoxicity in human HepG2 assessed as survival at 3760 uM measured after 24 hrs by micronucleus test (reference value: 100%); format: toxicity, cell-based; details: HepG2 cells, read-out: Survival
[16] = Genotoxicity in mouse RAW264.7 cells assessed as survival at 3760 uM measured after 24 hrs by micronucleus test (reference value: 100%); format: toxicity, cell-based; details: read-out: Survival
[17] = Genotoxicity in mouse RAW264.7 cells assessed as survival at 188 uM measured after 24 hrs by micronucleus test (reference value: 100%); format: toxicity, cell-based; details: read-out: Survival
[18] = Genotoxicity in human HepG2 assessed as survival at 1880 uM measured after 24 hrs by micronucleus test (reference value: 100%); format: toxicity, cell-based; details: HepG2 cells, read-out: Survival
RAW264.7 [19] = assay: Genotoxicity in mouse RAW264.7 cells assessed as mitotic index at 1880 uM measured after 24 hrs by micronucleus test (reference value: 40 to 249); format: toxicity, cell-based; details: raw264.7, 24 h
[20] = Cytotoxicity against human HepG2 cells assessed as reduction in cell viability measured after 24 hrs by WST1 assay; format: cell-based
[21] = Mutagenicity in Salmonella typhimurium YG1024 at 5 to 100 ug/plate after 20 mins by microsome assay; format: toxicity; details: salmonella enterica subsp. enterica serovar typhimurium, microsomes, dose 5-100 µg
[22] = Mutagenicity in Salmonella typhimurium YG1021 at 5 to 100 ug/plate after 20 mins by microsome assay; format: toxicity; details: salmonella enterica subsp. enterica serovar typhimurium, microsomes
RAW264.7 [23] = assay: Genotoxicity in mouse RAW264.7 cells assessed as mitotic index at 3760 uM measured after 24 hrs by micronucleus test (reference value: 40 to 249); format: toxicity, cell-based; details: raw264.7, 24 h
[24] = Genotoxicity in mouse RAW264.7 cells assessed as survival at 376 uM measured after 24 hrs by micronucleus test (reference value: 100%); format: toxicity, cell-based; details: read-out: Survival
RAW264.7 [25] = assay: Genotoxicity in mouse RAW264.7 cells assessed as number of micronucleated cells at 1880 uM measured after 24 hrs by micronucleus test (reference value: 12 to 15); format: toxicity, cell-based; details: raw264.7, 24 h
[26] = Mutagenicity in Salmonella typhimurium TA102 measured after 20 mins in presence of S9 fraction by microsome assay; format: toxicity, subcellular; details: salmonella enterica subsp. enterica serovar typhimurium, s9, 20 min, dose 5-100 µg
HepG2 [27] = assay: Genotoxicity in human HepG2 assessed as mitotic index at 3760 uM measured after 24 hrs by micronucleus test (reference value: 61 to 108); format: toxicity, cell-based; details: hepg2, 24 h
[28] = Toxicity in Salmonella typhimurium YG1024 at 5 to 100 ug/plate after 20 mins by colony counting method; details: salmonella enterica subsp. enterica serovar typhimurium, dose 5-100 µg
RAW264.7 [29] = assay: Genotoxicity in mouse RAW264.7 cells assessed as number of micronucleated cells at 376 uM measured after 24 hrs by micronucleus test (reference value: 12 to 15); format: toxicity, cell-based; details: raw264.7, 24 h
HepG2 [30] = assay: Genotoxicity in human HepG2 assessed as number of micronucleated cells at 3760 uM measured after 24 hrs by micronucleus test (reference value: 14 to 18); format: toxicity, cell-based; details: hepg2, 24 h
HepG2 [31] = assay: Genotoxicity in human HepG2 assessed as number of micronucleated cells at 1880 uM measured after 24 hrs by micronucleus test (reference value: 14 to 18); format: toxicity, cell-based; details: hepg2, 24 h
[32] = Mutagenicity in Salmonella typhimurium TA97 measured after 20 mins in presence of S9 fraction by microsome assay; format: toxicity, subcellular; details: salmonella enterica subsp. enterica serovar typhimurium, s9, 20 min, dose 5-100 µg
HepG2 [33] = assay: Genotoxicity in human HepG2 assessed as number of micronucleated cells at 376 uM measured after 24 hrs by micronucleus test (reference value: 14 to 18); format: toxicity, cell-based; details: hepg2, 24 h
[34] = Selectivity index, ratio of GI50 for mouse RAW264.7 cells assessed as reduction in cell viability measured after 24 hrs by WST1 assay to IC50 for antitrypanosomal activity against bloodstream form of Trypanosoma cruzi Y trypomastigotes infected in African green monkey Vero cells; format: toxicity; details: read-out: Selectivity Index
[35] = Mutagenicity in Salmonella typhimurium TA97 measured after 20 mins in absence of S9 fraction by microsome assay; format: toxicity; details: salmonella enterica subsp. enterica serovar typhimurium, microsomes, dose 5-100 µg
Trypanosoma cruzi [36] = assay: Antitrypanosomal activity against Trypanosoma cruzi Y axenic amastigotes infected in African green monkey Vero cells after 24 hrs by MTT assay; format: functional, organism-based
HepG2 [37] = assay: Genotoxicity in human HepG2 assessed as mitotic index at 1880 uM measured after 24 hrs by micronucleus test (reference value: 61 to 108); format: toxicity, cell-based; details: hepg2, 24 h
[38] = Cytotoxicity against mouse RAW264.7 cells assessed as reduction in cell viability measured after 24 hrs by WST1 assay; format: cell-based
[39] = Mutagenicity in Salmonella typhimurium TA98 measured after 20 mins in presence of S9 fraction by microsome assay; format: toxicity, subcellular; details: salmonella enterica subsp. enterica serovar typhimurium, s9, 20 min, dose 5-100 µg
RAW264.7 [40] = assay: Genotoxicity in mouse RAW264.7 cells assessed as number of micronucleated cells at 188 uM measured after 24 hrs by micronucleus test (reference value: 12 to 15); format: toxicity, cell-based; details: raw264.7, 24 h
[41] = Mutagenicity in Salmonella typhimurium TA98 measured after 20 mins in absence of S9 fraction by microsome assay; format: toxicity; details: salmonella enterica subsp. enterica serovar typhimurium, microsomes, dose 5-100 µg
HepG2 [42] = assay: Cytotoxicity against human HepG2 cells at 376 uM measured after 24 hrs by LDH assay; format: cell-based; details: hepg2, 24 h
[43] = Toxicity in Salmonella typhimurium YG1021 at 5 to 100 ug/plate after 20 mins by colony counting method; details: salmonella enterica subsp. enterica serovar typhimurium, dose 5-100 µg
[44] = Mutagenicity in Salmonella typhimurium TA102 measured after 20 mins in absence of S9 fraction by microsome assay; format: toxicity; details: salmonella enterica subsp. enterica serovar typhimurium, microsomes, dose 5-100 µg
[45] = Selectivity index, ratio of GI50 for human HepG2 cells assessed as reduction in cell viability measured after 24 hrs by WST1 assay to IC50 for antitrypanosomal activity against Trypanosoma cruzi Y axenic amastigotes infected in African green monkey Vero cells; format: toxicity; details: read-out: Selectivity Index
[46] = Mutagenicity in Salmonella typhimurium TA100 measured after 20 mins in presence of S9 fraction by microsome assay; format: toxicity, subcellular; details: salmonella enterica subsp. enterica serovar typhimurium, s9, 20 min, dose 5-100 µg
RAW264.7 [47] = assay: Cytotoxicity against mouse RAW264.7 cells at 18.8 to 376 uM measured after 24 hrs by LDH assay; format: cell-based; details: raw264.7, 24 h, dose 18.8-376 µM
HepG2 [48] = assay: Genotoxicity in human HepG2 assessed as mitotic index at 376 uM measured after 24 hrs by micronucleus test (reference value: 61 to 108); format: toxicity, cell-based; details: hepg2, 24 h
HepG2 [49] = assay: Genotoxicity in human HepG2 assessed as mitotic index at 188 uM measured after 24 hrs by micronucleus test (reference value: 61 to 108); format: toxicity, cell-based; details: hepg2, 24 h
RAW264.7 [50] = assay: Genotoxicity in mouse RAW264.7 cells assessed as mitotic index at 376 uM measured after 24 hrs by micronucleus test (reference value: 40 to 249); format: toxicity, cell-based; details: raw264.7, 24 h
[51] = Mutagenicity in Salmonella typhimurium TA100 measured after 20 mins in absence of S9 fraction by microsome assay; format: toxicity; details: salmonella enterica subsp. enterica serovar typhimurium, microsomes, dose 5-100 µg
[52] = Genotoxicity in human HepG2 assessed as survival at 376 uM measured after 24 hrs by micronucleus test (reference value: 100%); format: toxicity, cell-based; details: HepG2 cells, read-out: Survival
RAW264.7 [53] = assay: Genotoxicity in mouse RAW264.7 cells assessed as mitotic index at 188 uM measured after 24 hrs by micronucleus test (reference value: 40 to 249); format: toxicity, cell-based; details: raw264.7, 24 h

## CCCCCc1cn(-c2c([N+](=O)[O-])ncn2C)nn1
Trypanosoma cruzi [1]
  IC50: 54.3 µM

## c1ccc2c(c1)cc1ccc3cccc4ccc2c1c34 [BENZO[DEF]CHRYSENE]
HepG2 [2]
  Activity: 31
[3]
  viability at 24 h, 100 ug/ml: 99%
HepG2 [4]
  Activity_index: 57

## Cn1cnc([N+](=O)[O-])c1-n1ccnc1
Trypanosoma cruzi [1]
  IC50: > 2000 µM

## Cn1cnc([N+](=O)[O-])c1-n1cccn1
[5]
  Activity: Non-Toxic
[6]
  Activity: 35.5 revertants/µg
[7]
  Activity: 65.5 revertants/µg
[8]
  Activity: 11.5 revertants/µg

## Cn1cnc([N+](=O)[O-])c1-n1cncn1
Trypanosoma cruzi [1]
  IC50: 354 µM

## CCOC(=O)c1cn(-c2c([N+](=O)[O-])ncn2C)nn1
[9]
  viability at 24 h, 1880 µM: 95%
HepG2 [10]
  Activity: 17
[5]
  Activity: 0.714 µg
[11]
  selectivity ratio at 24 h: > 0.95
[6]
  Activity: 3.36 revertants/µg
[12]
  selectivity ratio at 24 h: > 8.3
RAW264.7 [13]
  Activity: 13
[14]
  viability at 24 h, 188 µM: 99%
Trypanosoma cruzi [1]
  IC50: 45.3 µM
[15]
  viability at 24 h, 3760 µM: 90%
[16]
  viability at 24 h, 3760 µM: 90%
[17]
  viability at 24 h, 188 µM: 99%
[7]
  Activity: 3.54 revertants/µg
[18]
  viability at 24 h, 1880 µM: 97%
RAW264.7 [19]
  Activity_index: 100
[20]
  GI50 at 24 h: > 376 µM
[21]
  Activity: Non-Toxic
[22]
  Activity: Non-Toxic
RAW264.7 [23]
  Activity_index: 78
[24]
  viability at 24 h, 376 µM: 99%
RAW264.7 [25]
  Activity: 13
[26]
  Activity: Toxic
HepG2 [27]
  Activity_index: 52
[28]
  Activity: Toxic
RAW264.7 [29]
  Activity: 10
HepG2 [30]
  Activity: 35
[8]
  Activity: 2.19 revertants/µg
HepG2 [31]
  Activity: 32
[32]
  Activity: Toxic
HepG2 [33]
  Activity: 21
[34]
  selectivity ratio at 24 h: > 8.3
[35]
  Activity: Toxic
Trypanosoma cruzi [36]
  IC50: 393 µM
HepG2 [37]
  Activity_index: 60
[38]
  GI50 at 24 h: > 376 µM
[39]
  Activity: Non-Toxic
RAW264.7 [40]
  Activity: 11
[41]
  Activity: Non-Toxic
HepG2 [42]
  Activity: Toxic
[43]
  Activity: Toxic
[44]
  Activity: Toxic
[45]
  selectivity ratio at 24 h: > 0.95
[46]
  Activity: Toxic
RAW264.7 [47]
  Activity: Non-Toxic
HepG2 [48]
  Activity_index: 50
HepG2 [49]
  Activity_index: 55
RAW264.7 [50]
  Activity_index: 80
[51]
  Activity: Toxic
[52]
  viability at 24 h, 376 µM: 99%
RAW264.7 [53]
  Activity_index: 58
